According to patent US20260007634A1, “PHARMACEUTICAL COMPOSITIONS FOR THE TREATMENT OF ALLERGIC DISEASES” (KINKI UNIVERSITY, priority 2022, published 2026):

What was measured:
OVA-IgE antibody = assay: Serum OVA-IgE antibody ELISA, food allergy mice; assay type: in vivo, mouse; conditions: serum day 28, oral 10 mg/kg (dexamethasone 2 mg/kg), control 1.5, vehicle 74
Description: A 0.2 mL dose of 10 μg ovalbumin (OVA) and 1 mg Alum mixture was administered to 6-week-old female Balb/c mice (Japan SLC Inc.) (day 0 of the example). Alum was used as an adjuvant. Seven days later, the Balb/c mice were immunized again with a 0.2 mL injection of the above mixture. Starting on day 14, mice were orally treated with 10 mg/kg of norathyriol, 10 mg/kg of mangiferin 8a, 10 mg/kg of tofacitinib (JAK inhibitor), 2 mg/kg of dexamethasone (steroid) and 10 mg/kg of olopatadine (antihistamine) daily for 14 consecutive days. Starting on day 14, 10 mg OVA was administered orally every other day […], and the frequency of diarrhea was measured after the final administration on day 28. Note that tofacitinib, dexamethasone, and olopatadine are currently in clinical use in food allergy and were used as control drugs in this example.
Serum was collected from day 28 mice in Examples 21, and OVA-IgE antibody production was measured by enzyme-linked immunosorbent assay (ELISA). This assay was performed using a mouse OVA-IgE antibody ELISAkit (FUJIFILM Wako).

IL-17 = assay: Serum IL-17 ELISA, cedar pollinosis mice; assay type: in vivo, mouse; conditions: serum day 28, oral 10 mg/kg (dexamethasone 2 mg/kg), control 18, vehicle 397
Description: A 0.2 mL dose of 100 μg cedar pollen and 1 mg Alum mixture was administered to 6-week-old female Balb/c mice (Japan SLC Inc.) (day 0 of the example). Alum was used as an adjuvant. Seven days later and 14 days later, the Balb/c mice were immunized again with 0.2 mL injections of the above mixture. Starting on day 20, mice were orally treated with 10 mg/kg of norathyriol, 10 mg/kg of mangiferin 8a, 10 mg/kg of tofacitinib (JAK inhibitor), 2 mg/kg of dexamethasone (steroid) and 10 mg/kg of olopatadine (antihistamine) daily for 8 consecutive days. Starting on day 21, 500 μg cedar pollen was administered intranasally, and nose-scratching behavior was measured on day 27. Note that tofacitinib, dexamethasone, and olopatadine are currently in clinical use in cedar pollinosis and were used as control drugs in this example.
Serum was collected from day 28 mice in Examples 28 and 29, and IL-17 production was measured by enzyme-linked immunosorbent assay (ELISA). This assay was performed using a mouse IL-17 ELISA kit (R&D).

[1] = system: Balb/c mice with ovalbumin-induced bronchial asthma; assay: Cough, ovalbumin-induced bronchial asthma mice; assay type: in vivo, mouse; conditions: OVA bronchial asthma; oral daily 8 days from day 20, 10 mg/kg (dexamethasone 2 mg/kg); measured day 27; vs vehicle group
Description: (§1) A 0.2 mL dose of 50 μg ovalbumin (OVA) and 2 mg Alum mixture was administered to 6-week-old female Balb/c mice (Japan SLC Inc.) (day 0 of the example). Alum was used as an adjuvant. Seven days later and 14 days later, the Balb/c mice were immunized again with 0.2 mL injections of the above mixture. Starting on day 20, mice were orally treated with 10 mg/kg of norathyriol, 10 mg/kg of mangiferin 8a, 10 mg/kg of tofacitinib (JAK inhibitor), 2 mg/kg of dexamethasone (steroid) and 10 mg/kg of olopatadine (antihistamine) daily for 8 consecutive days. Starting on day 21, 400 μg OVA was administered intranasally, and cough was measured on day 27. Note that tofacitinib, dexamethasone, and olopatadine are currently in clinical use in allergic rhinitis and were used as control drugs in this example.
The group that was just immunized with OVA is called the subject group, the one that received norathyriol is called the norathyriol group, the one that received mangiferin 8a is called the mangiferin 8a group, the one that received tofacitinib is called the tofacitinib group, the one that received dexamethasone is called the dexamethasone group, and the one that received olopatadine is called the olopatadine group. Each group consisted of five animals.

IL-4 = assay: Serum IL-4 ELISA, allergic rhinitis mice; assay type: in vivo, mouse; conditions: OVA allergic rhinitis; serum day 28; oral 10 mg/kg (dexamethasone 2 mg/kg); control 227, vehicle 872
Description: as §1, with “nose-scratching behavior” for “cough”
Serum was collected from day 28 mice in Examples 6 and 7, and IL-4 production was measured by enzyme-linked immunosorbent assay (ELISA). This assay was performed using a mouse IL-4 ELISA kit (R&D).

IL-5 = assay: Serum IL-5 ELISA, allergic rhinitis mice; assay type: in vivo, mouse; conditions: OVA allergic rhinitis; serum day 28; oral 10 mg/kg (dexamethasone 2 mg/kg); control 151, vehicle 1010
Description: as §1, with “nose-scratching behavior” for “cough”
Serum was collected from day 28 mice in Examples 6 and 7, and IL-5 production was measured by enzyme-linked immunosorbent assay (ELISA). This assay was performed using a mouse IL-5 ELISA kit (R&D).

TNFα = assay: LPS-stimulated TNFα secretion in B cells (ELISA); assay type: cell-based, mouse; conditions: 10 μM compound, 10 μg/mL LPS 2 days, control 15.13, LPS 296.31
Description: Mouse B cells were used to examine the inhibition of compounds on TNFα secretion in LPS stimulation.
Mouse B cells were cultured in RPMI 1640 medium for 1 day. Then, 10 μM mangiferin 8a and 10 μM norathyriol were added to B cells, and after 1 day of culture, 10 μg/mL of LPS was added to each, followed by 2 days of culture.
Thus, the samples were divided into “control” with no treatment, “10 μg/mL LPS+10 μM mangiferin 8a” to which 10 μg/mL LPS and 10 μM mangiferin 8a were added, and “10 μg/mL LPS+10 μM norathyriol” to which 10 μg/mL LPS and 10 μM norathyriol were added and only 10 μg/mL LPS was added (“10 μg/L LPS”).
After these samples were incubated for 2 days, the culture supernatant was collected and TNFα secretion was measured by enzyme-linked immunosorbent assay (ELISA). The mouse TNFα ELISA kit (R&D) was used for this measurement.

Row | Structure (SMILES) | amount of OVA-IgE antibody (OVA-IgE antibody) | amount of IL-17 (IL-17) | number of coughs [1] | amount of IL-4 (IL-4) | amount of IL-5 (IL-5) | TNFα secretion (TNFα)
1 | CN(C)CC/C=C1/c2ccccc2COc2ccc(CC(=O)O)cc21 [olopatadine] | 68 U/mL | 172 pg/mL | significantly decreased the number of coughs | 717 pg/mL | 880 pg/mL | 
2 | C[C@@H]1C[C@H]2[C@@H]3CCC4=CC(=O)C=C[C@]4(C)[C@@]3(F)[C@@H](O)C[C@]2(C)[C@@]1(O)C(=O)CO [dexamethasone] | 21 U/mL | 49 pg/mL |  | 336 pg/mL | 314 pg/mL | 
3 | O=c1c2cc(O)c(O)cc2oc2cc(O)cc(O)c12 [norathyriol, 1,3,6,7-tetrahydroxyxanthone] | 45 U/mL | 195 pg/mL | significantly decreased the number of coughs | 495 pg/mL | 633 pg/mL | 64.13 pg/mL
4 | C[C@@H]1CCN(C(=O)CC#N)C[C@@H]1N(C)c1ncnc2[nH]ccc12 [tofacitinib] | 61 U/mL | 244 pg/mL | significantly decreased the number of coughs | 808 pg/mL | 839 pg/mL | 
